Where “and” joins values, the source holds several entries; their conditions need not be identical. Identical values can stand only once. Toxic doses and inconclusive results are not listed.
System: L1210 leukemia ip in BDF1 mice, survival T/C
Assay: NCI In Vivo Anticancer Drug Screen. Data for tumor model L1210 Leukemia (intraperitoneal) in B6D2F1 (BDF1) mice
Conditions: endpoint: mean survival time, higher = longer survival
Summary of the method: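 Transplantable tumor model; survival measured in treated vs vehicle control mice. Value = treated/control.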

[1] = dose: 100.0 mg/kg/injection, schedule: Q01DX001 (ip), vehicle: saline with Tween-80
[2] = dose: 200.0 mg/kg/injection, schedule: Q01DX001 (ip), vehicle: saline with Tween-80
[3] = dose: 200.0 mg/kg/injection, schedule: Q04DX003 (ip), vehicle: saline with Tween-80
[4] = dose: 400.0 mg/kg/injection, schedule: Q04DX003 (ip), vehicle: saline with Tween-80
[5] = dose: 100.0 mg/kg/injection, schedule: Q04DX003 (ip), vehicle: Klucel (hydroxypropylcellulose) (HPC)
[6] = dose: 50.0 mg/kg/injection, schedule: Q04DX003 (ip), vehicle: saline with Tween-80
[7] = dose: 100.0 mg/kg/injection, schedule: Q01DX009 (ip), vehicle: saline
[8] = dose: 100.0 mg/kg/injection, schedule: Q04DX003 (ip), vehicle: saline with Tween-80

Compound: CCOC(=O)CC(C(C)=O)C(=O)OCC (centres undefined)
- T/C (dose: 50.0 mg/kg/injection, schedule: Q01DX001 (ip), vehicle: carboxymethylcellulose (CMC)): 100 % of control
- T/C (dose: 100.0 mg/kg/injection, schedule: Q01DX001 (ip), vehicle: carboxymethylcellulose (CMC)): 100 % of control
- T/C (dose: 200.0 mg/kg/injection, schedule: Q01DX001 (ip), vehicle: carboxymethylcellulose (CMC)): 94 % of control
- T/C (dose: 400.0 mg/kg/injection, schedule: Q01DX001 (ip), vehicle: carboxymethylcellulose (CMC)): 100 % of control

Compound: Nc1cccc(CNC(=O)COc2ccc(Cl)cc2C(=O)O)c1
- T/C [1]: 98 % of control
- T/C [2]: 95 % of control
- T/C (dose: 400.0 mg/kg/injection, schedule: Q01DX001 (ip), vehicle: saline with Tween-80): 103 % of control

Compound: CN(C)C1C(CO)C(CO)C1(C)C (centres undefined)
- T/C [1]: 102 % of control
- T/C [2]: 97 % of control

Compound: COC(=O)C(CCC(=O)C=[N+]=N)NC(=O)C(Cl)Cl (centres undefined)
- T/C (dose: 35.0 mg/kg/injection, schedule: Q01DX001 (ip), vehicle: saline): 122 % of control
- T/C (dose: 75.0 mg/kg/injection, schedule: Q01DX001 (ip), vehicle: saline): 122 % of control
- T/C (dose: 125.0 mg/kg/injection, schedule: Q01DX001 (ip), vehicle: saline): 111 % of control
- T/C [3]: 167 % of control
- T/C (dose: 266.0 mg/kg/injection, schedule: Q01DX001 (ip), vehicle: saline): 98 % of control
- T/C [4]: 124 % of control
- T/C (dose: 600.0 mg/kg/injection, schedule: Q01DX001 (ip), vehicle: saline): 117 % of control

Compound: CS(=O)(=O)OCCN(CCOS(C)(=O)=O)c1ccc(C=Nc2cc(Cl)c(O)c(Cl)c2)cc1
- T/C (dose: 20.0 mg/kg/injection, schedule: Q04DX003 (ip), vehicle: Klucel (hydroxypropylcellulose) (HPC)): 107 % of control
- T/C (dose: 40.0 mg/kg/injection, schedule: Q04DX003 (ip), vehicle: Klucel (hydroxypropylcellulose) (HPC)): 120 % of control
- T/C (dose: 80.0 mg/kg/injection, schedule: Q04DX003 (ip), vehicle: Klucel (hydroxypropylcellulose) (HPC)): 86 % of control
- T/C [5]: 110 % of control

Compound: CN1CCN(C(=S)[S-])CC1.CN1CCN(C(=S)[S-])CC1.[Zn]
- T/C (dose: 2.5 mg/kg/injection, schedule: Q01DX009 (ip), vehicle: acetone): 96 % of control
- T/C (dose: 5.0 mg/kg/injection, schedule: Q01DX009 (ip), vehicle: acetone): 96 % of control
- T/C (dose: 5.0 mg/kg/injection, schedule: Q04DX003 (ip), vehicle: acetone): 100 % of control
- T/C (dose: 10.0 mg/kg/injection, schedule: Q01DX001 (ip), vehicle: saline): 91 % of control
- T/C (dose: 10.0 mg/kg/injection, schedule: Q01DX009 (ip), vehicle: acetone): 108 % of control
- T/C (dose: 10.0 mg/kg/injection, schedule: Q04DX003 (ip), vehicle: acetone): 92 % of control
- T/C (dose: 20.0 mg/kg/injection, schedule: Q01DX001 (ip), vehicle: saline): 91 % of control
- T/C (dose: 20.0 mg/kg/injection, schedule: Q04DX003 (ip), vehicle: acetone): 92 % of control

Compound: O=c1ccc2c([nH]1)CCC2
- T/C (dose: 25.0 mg/kg/injection, schedule: Q01DX009 (ip), vehicle: saline): 111 % of control
- T/C (dose: 25.0 mg/kg/injection, schedule: Q04DX003 (ip), vehicle: saline with Tween-80): 94 % of control
- T/C (dose: 50.0 mg/kg/injection, schedule: Q01DX009 (ip), vehicle: saline): 121 % of control
- T/C [6]: 98 % of control
- T/C [7]: 101 % of control
- T/C [5]: 100 % of control
- T/C [8]: 94 % of control

Compound: NC(=O)c1n[nH]nc1N1CC[N+](CCCl)=N1
- T/C (dose: 44.0 mg/kg/injection, schedule: Q01DX009 (ip), vehicle: saline with Tween-80): 110 % of control
- T/C (dose: 50.0 mg/kg/injection, schedule: Q01DX009 (ip), vehicle: saline with Tween-80): 111 % of control
- T/C [6]: 105 % of control
- T/C (dose: 67.0 mg/kg/injection, schedule: Q01DX009 (ip), vehicle: saline with Tween-80): 107 % of control
- T/C [7]: 96 % of control
- T/C [8]: 97 % of control and 113 % of control
- T/C (dose: 100.0 mg/kg/injection, schedule: Q04DX003 (ip), vehicle: saline): 107 % of control
- T/C (dose: 150.0 mg/kg/injection, schedule: Q01DX009 (ip), vehicle: saline with Tween-80): 112 % of control
- T/C (dose: 200.0 mg/kg/injection, schedule: Q01DX009 (ip), vehicle: saline): 91 % of control
- T/C [3]: 118 % of control and 121 % of control
- T/C (dose: 200.0 mg/kg/injection, schedule: Q04DX003 (ip), vehicle: saline): 105 % of control
- T/C (dose: 400.0 mg/kg/injection, schedule: Q01DX009 (ip), vehicle: saline): 95 % of control
- T/C [4]: 113 % of control
- T/C (dose: 400.0 mg/kg/injection, schedule: Q04DX003 (ip), vehicle: saline): 94 % of control

Source: PubChem BioAssay AID248 (DTP/NCI, 2004)
